pKi: −log10 of the molar value. The source made the active and inactive calls. No cut-off for these calls is given here.
Tests used:
Calf thymus DNA [1] = assay: Binding affinity to calf thymus DNA by UV-visible absorption spectroscopy; assay type: nucleic-acid assay, Bos taurus; conditions: for Kb: Bos taurus
Calf thymus DNA [2] = assay: Binding affinity to calf thymus DNA assessed as fluorescence quenching at DNA/compound ratio 4 by fluorescence spectrophotometer analysis; assay type: nucleic-acid assay; conditions: Bos taurus
Calf thymus DNA [3] = assay: Binding affinity to calf thymus DNA assessed as relative viscosity after 5 mins by semimicrodilution capillary viscometer analysis; assay type: nucleic-acid assay; conditions: Bos taurus
Escherichia coli [4] = assay: Photo-cleavage activity in Escherichia coli supercoiled pUC19 DNA assessed as formation of open circular form of DNA at 60 uM measured 2 hrs after UV-light irradiation by gel electrophoresis analysis
Escherichia coli [5] = assay: Photo-cleavage activity in Escherichia coli supercoiled pUC19 DNA assessed as formation of nicked form of DNA at 20 to 40 uM measured 2 hrs after UV-light irradiation by gel electrophoresis analysis
Escherichia coli [6] = assay: Photo-cleavage activity in Escherichia coli supercoiled pUC19 DNA assessed as formation of nicked form of DNA at 80 uM measured 2 hrs after UV-light irradiation by gel electrophoresis analysis
Escherichia coli [7] = assay: Photo-cleavage activity in Escherichia coli supercoiled pUC19 DNA assessed as formation of linear form of DNA at 80 uM measured 2 hrs after UV-light irradiation by gel electrophoresis analysis
Escherichia coli [8] = assay: Photo-cleavage activity in Escherichia coli supercoiled pUC19 DNA assessed as formation of open circular form of DNA at 140 uM measured 2 hrs after UV-light irradiation by gel electrophoresis analysis
Escherichia coli [9] = assay: Photo-cleavage activity in Escherichia coli supercoiled pUC19 DNA assessed as formation of open circular form of DNA at 80 uM measured 2 hrs after UV-light irradiation by gel electrophoresis analysis
Escherichia coli [10] = assay: Photo-cleavage activity in Escherichia coli supercoiled pUC19 DNA assessed as formation of open circular form of DNA at 40 uM measured 2 hrs after UV-light irradiation by gel electrophoresis analysis

| Kb (Calf thymus DNA [1]) [×10⁴ /M] | Activity (Calf thymus DNA [2]) | Activity (Calf thymus DNA [3]) | Activity (Escherichia coli [4]) [%] | Activity (Escherichia coli [5]) [%] | Activity (Escherichia coli [6]) [%] | Activity (Escherichia coli [7]) [%] | Activity (Escherichia coli [8]) [%] | Activity (Escherichia coli [9]) [%] | Activity (Escherichia coli [10]) [%] | SMILES | pKi (Calf thymus DNA [1]) |
| --- | --- | --- | --- | --- | --- | --- | --- | --- | --- | --- | --- |
| 4.91 | Active | Active | 56 | 8 | 70 | 24 |  |  |  | O=C(/C=C/c1cc2ccccc2nc1Cl)c1ccc([N+](=O)[O-])cc1 | 6.27 |
| 2.8 | Active | Active | 52 | 8 | 70 | 24 | 58 |  |  | COc1ccc(C(=O)/C=C/c2cc3ccccc3nc2Cl)cc1 |  |
| 5.13 | Active | Active | 54 | 8 | 70 | 24 |  |  |  | O=C(/C=C/c1cc2ccccc2nc1Cl)c1ccc(Cl)cc1 | 6.25 |
| 4.2 | Active | Active | 55 | 8 | 70 | 24 |  |  |  | O=C(/C=C/c1cc2ccccc2nc1Cl)c1ccc(Br)cc1 | 6.33 |
| 3.5 |  |  | 57 | 8 | 40 | 24 |  | 40 |  | CNc1ccc(C(=O)/C=C/c2cc3ccccc3nc2Cl)cc1 |  |
| 5.2 | Active | Active | 50 | 8 | 70 | 24 |  |  |  | O=C(/C=C/c1cc2ccccc2nc1Cl)c1ccccc1 | 6.24 |
| 4.9 | Active | Active | 51 | 8 | 70 | 24 |  |  |  | Cc1ccc(C(=O)/C=C/c2cc3ccccc3nc2Cl)cc1 | 6.27 |
| 1.9 | Active | Active | 53 | 8 | 70 | 24 |  | 70 | 24 | O=C(/C=C/c1cc2ccccc2nc1Cl)c1ccc(O)cc1 |  |
